These results are taken from US8618111B2, “5-alkynyl-pyrimidines” (Boehringer Ingelheim International GmbH, priority 2010, dated 2013).

For assay [1], the target named is PI3Kalpha (Homo sapiens (Human), UniProt P42336). The experiment in a line: Inhibition of PI3Kalpha-induced PIP-2 phosphorylation (filter-binding assay). The settings on record: 33P-ATP. The assay is classed as biochemical. The procedure:
Inhibition of PI3Kalpha-Induced PIP-2 Phosphorylation
Method Type: Filter-Binding-Assay
Aliquoted in desired amounts and stored at −80° C. Final assay concentration 25 ng/well.

Assay [2] concerns PC3 (human prostate carcinoma cell line) cells. Put plainly: PC3 proliferation test. The assay is classed as cell-based. As to conditions: PC-3, 72 h, 3 days incubation, DNA dye fluorescence.
Description: The test is based on measurement of cellular DNA content via fluorescent dye binding. Because cellular DNA content is highly regulated, it is closely proportional to cell number. The extent of proliferation is determined by comparing cell counts for samples treated with drugs with untreated controls.
PC3 (human prostate carcinoma cell line) cells are sown in microtitre plates and incubated overnight in culture medium at 37° C. and 5% CO2. The test substances are diluted stepwise and added to the cells such that the total volume is 200 μL/well. Cells to which diluent, but not substance, is added serve as controls.
Assay [3] concerns the target mTOR (Homo sapiens (Human), UniProt P42345). The experiment in a line: mTOR kinase activity assay (phosphorylation status of mTOR substrate 4E-BP1; TR-FRET). The format is biochemical. The settings on record: GFP-4E-BP1 substrate, 8 μM ATP. The procedure: mTOR Kinase Activity Assay
(Phosphorylation Status of mTOR Substrate 4E-BP1; TR-FRET)
The mTOR kinase TR-FRET assay utilizes a physiologically relevant protein substrate for mTOR (4E-BP1, labeled with an acceptor fluorophore (Green Fluorescent Protein) and paired with a corresponding Tb-labeled phospho-specific antibody.
The assay itself is divided into two phases: the reaction phase and the detection phase. In the reaction phase, all components required for the kinase reaction are added to the well, including the labeled protein substrate. The reaction is allowed to incubate for 60 minutes. After the reaction, EDTA is added to stop the kinase reaction, and terbium-labeled antibody is added to bind phosphorylated product. Because the terbium chelate is stable at the EDTA concentrations used to stop a kinase assay, the antibody and EDTA can be pre-mixed prior to addition to minimize pipetting steps. Binding of the terbium labeled antibody to the fluorophore-labeled phosphorylated product brings the terbium and GFP into proximity, resulting in an increase in TR-FRET. In the presence of an inhibitor, formation of phosphorylated product is reduced, and the TR-FRET value is decreased.
• GFP-4E-BP1 substrate; Invitrogen order no. PV4759 • Lanthascreen Tb-anti-p4E-BP1 (pThr46) Antibody Kit; Invitrogen order no. PV4758 • FRAP1 (mTOR) kinase; Invitrogen order no.
400 nM GFP-4E-BP1, 8 μM ATP, ˜150 ng/mL mTOR, 50 mM HEPES pH 7.5, 0.01% Polysorbate 20, 1 mM EGTA, 10 mM MnCl2, and variable amounts of test compounds.
Note: Thaw and keep mTOR, the substrate, ATP, and the antibody on ice prior to making working dilutions. Working dilutions of these components can be kept at room temperature for short periods of time the day of use. • 1. Add 2 ml of 5× Assay Buffer to 8 ml water to prepare 10 ml of 1× Assay Buffer, wherein the concentration of 1× Assay Buffer is 50 mM HEPES pH 7.5, 0.01% Polysorbate 20, 1 mM EGTA, and 10 mM MnCl2. • 2. Prepare Antibody/EDTA Solution by first adding 2.75 μl of Tb-anti p4E-BP1 Antibody to 2397 μl of LanthaScreen™ TR-FRET Dilution Buffer. Then, add 100 μl of 0.5 M EDTA. • 3. […] Then, add 1.6 μl of mTOR (0.45 mg/mL). • 4. Prepare ATP Solution by adding 3.2 μl of 10 mM ATP to 1997 μl of 1× Assay Buffer. Serial Dilution of Inhibitors (16 Point Curve)
Inhibitors are serially diluted in DMSO, then diluted to a 4× working concentration with 1× Assay Buffer. • 1. Dispense 40 μl of DMSO to two adjacent columns of a 96 well plate per compound (e.g. columns 1 and 2). • 2. Add 10 μl of inhibitor stock (10 mM) to the first well of the first column (A1) and mix. • 3. Remove 10 μl from A1 and transfer to the adjacent well in the next column (B1) and mix. • 4. Remove 10 μl from B1 and transfer to the next well in the first column (B2) and mix. • 5. […] Remove 4 μl of diluted compounds and add to 96 μl of 1× Assay Buffer in a 96-well plate making 4× compound dilutions. Kinase Reaction • 1. Add 2.5 μl of 4X compound dilutions to a 384-well plate. • 2. […] Preincubate for […] at RT (shaker). • 5. Add 5 μl of ATP Solution to all wells to start reactions. • 6. Shake the assay plate on a plate shaker for 30 seconds. • 7. Incubate the assay plate for one hour at room temperature (20-25° C.). Stop Step and Fluorescence Detection • 1. Add 10 μl of Antibody/EDTA Solution to each well in columns 1-9. • 2. Shake the assay plate on a plate shaker for 30 seconds. • 3. Incubate the assay plate for one hour at room temperature (20-25° C.). • 4. Measure the GFP (FRET) and terbium (reference) emission signals on a fluorescence plate reader (e.g. Perkin Elmer Envision). Data Analysis • 1. Calculate the emission ratio for each sample by dividing the GFP (FRET) signal by the terbium (reference) signal. • 2.

Chain of PI3Kalpha (P42336 whole entry, species assumed): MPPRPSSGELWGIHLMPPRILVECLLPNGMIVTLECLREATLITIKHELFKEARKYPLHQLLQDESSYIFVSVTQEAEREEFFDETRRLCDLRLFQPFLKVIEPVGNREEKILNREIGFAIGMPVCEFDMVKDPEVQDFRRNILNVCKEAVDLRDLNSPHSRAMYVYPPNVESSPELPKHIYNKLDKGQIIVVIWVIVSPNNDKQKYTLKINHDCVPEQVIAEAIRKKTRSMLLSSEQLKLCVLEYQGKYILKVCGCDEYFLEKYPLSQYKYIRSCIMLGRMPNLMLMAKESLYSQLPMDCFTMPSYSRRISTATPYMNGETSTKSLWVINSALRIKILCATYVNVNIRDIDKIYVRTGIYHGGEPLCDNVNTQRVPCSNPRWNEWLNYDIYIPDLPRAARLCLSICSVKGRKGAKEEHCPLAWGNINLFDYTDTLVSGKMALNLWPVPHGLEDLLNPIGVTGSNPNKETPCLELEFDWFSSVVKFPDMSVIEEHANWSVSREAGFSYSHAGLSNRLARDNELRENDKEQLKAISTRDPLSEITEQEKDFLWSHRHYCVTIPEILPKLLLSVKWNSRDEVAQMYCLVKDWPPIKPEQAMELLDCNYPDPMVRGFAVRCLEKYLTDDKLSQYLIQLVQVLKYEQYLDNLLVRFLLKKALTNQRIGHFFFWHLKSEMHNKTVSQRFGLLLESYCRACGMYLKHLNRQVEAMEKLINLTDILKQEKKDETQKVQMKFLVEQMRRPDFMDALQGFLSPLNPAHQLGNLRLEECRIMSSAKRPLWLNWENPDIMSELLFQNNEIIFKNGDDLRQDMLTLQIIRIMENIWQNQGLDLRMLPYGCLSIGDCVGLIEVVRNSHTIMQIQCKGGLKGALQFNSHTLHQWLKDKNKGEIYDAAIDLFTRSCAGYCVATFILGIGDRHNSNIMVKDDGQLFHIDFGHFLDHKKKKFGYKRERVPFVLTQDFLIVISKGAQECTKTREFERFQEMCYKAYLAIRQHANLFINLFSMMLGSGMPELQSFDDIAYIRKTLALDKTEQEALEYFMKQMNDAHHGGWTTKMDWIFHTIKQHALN
Chain of PI3Kalpha (P27986 whole entry partner, species assumed): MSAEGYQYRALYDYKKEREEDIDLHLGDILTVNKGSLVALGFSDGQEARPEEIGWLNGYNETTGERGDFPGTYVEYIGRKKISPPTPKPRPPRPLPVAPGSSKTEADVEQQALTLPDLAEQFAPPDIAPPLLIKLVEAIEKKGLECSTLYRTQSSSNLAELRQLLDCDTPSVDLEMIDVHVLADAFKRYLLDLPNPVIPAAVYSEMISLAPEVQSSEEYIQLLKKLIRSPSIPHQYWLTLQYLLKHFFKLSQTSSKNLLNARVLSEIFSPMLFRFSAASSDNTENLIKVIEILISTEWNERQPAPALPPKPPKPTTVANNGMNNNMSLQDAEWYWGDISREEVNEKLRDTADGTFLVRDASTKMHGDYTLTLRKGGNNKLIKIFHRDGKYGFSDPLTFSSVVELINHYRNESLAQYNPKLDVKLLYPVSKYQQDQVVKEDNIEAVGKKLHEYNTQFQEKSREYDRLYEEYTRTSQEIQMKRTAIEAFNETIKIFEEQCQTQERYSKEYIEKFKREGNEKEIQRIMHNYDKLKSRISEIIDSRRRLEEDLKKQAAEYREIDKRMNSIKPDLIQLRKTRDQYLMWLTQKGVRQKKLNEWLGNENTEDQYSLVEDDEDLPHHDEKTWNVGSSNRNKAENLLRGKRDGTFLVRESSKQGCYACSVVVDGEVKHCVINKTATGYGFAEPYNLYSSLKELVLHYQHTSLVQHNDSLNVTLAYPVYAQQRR
Chain of mTOR (P42345 1360-2549): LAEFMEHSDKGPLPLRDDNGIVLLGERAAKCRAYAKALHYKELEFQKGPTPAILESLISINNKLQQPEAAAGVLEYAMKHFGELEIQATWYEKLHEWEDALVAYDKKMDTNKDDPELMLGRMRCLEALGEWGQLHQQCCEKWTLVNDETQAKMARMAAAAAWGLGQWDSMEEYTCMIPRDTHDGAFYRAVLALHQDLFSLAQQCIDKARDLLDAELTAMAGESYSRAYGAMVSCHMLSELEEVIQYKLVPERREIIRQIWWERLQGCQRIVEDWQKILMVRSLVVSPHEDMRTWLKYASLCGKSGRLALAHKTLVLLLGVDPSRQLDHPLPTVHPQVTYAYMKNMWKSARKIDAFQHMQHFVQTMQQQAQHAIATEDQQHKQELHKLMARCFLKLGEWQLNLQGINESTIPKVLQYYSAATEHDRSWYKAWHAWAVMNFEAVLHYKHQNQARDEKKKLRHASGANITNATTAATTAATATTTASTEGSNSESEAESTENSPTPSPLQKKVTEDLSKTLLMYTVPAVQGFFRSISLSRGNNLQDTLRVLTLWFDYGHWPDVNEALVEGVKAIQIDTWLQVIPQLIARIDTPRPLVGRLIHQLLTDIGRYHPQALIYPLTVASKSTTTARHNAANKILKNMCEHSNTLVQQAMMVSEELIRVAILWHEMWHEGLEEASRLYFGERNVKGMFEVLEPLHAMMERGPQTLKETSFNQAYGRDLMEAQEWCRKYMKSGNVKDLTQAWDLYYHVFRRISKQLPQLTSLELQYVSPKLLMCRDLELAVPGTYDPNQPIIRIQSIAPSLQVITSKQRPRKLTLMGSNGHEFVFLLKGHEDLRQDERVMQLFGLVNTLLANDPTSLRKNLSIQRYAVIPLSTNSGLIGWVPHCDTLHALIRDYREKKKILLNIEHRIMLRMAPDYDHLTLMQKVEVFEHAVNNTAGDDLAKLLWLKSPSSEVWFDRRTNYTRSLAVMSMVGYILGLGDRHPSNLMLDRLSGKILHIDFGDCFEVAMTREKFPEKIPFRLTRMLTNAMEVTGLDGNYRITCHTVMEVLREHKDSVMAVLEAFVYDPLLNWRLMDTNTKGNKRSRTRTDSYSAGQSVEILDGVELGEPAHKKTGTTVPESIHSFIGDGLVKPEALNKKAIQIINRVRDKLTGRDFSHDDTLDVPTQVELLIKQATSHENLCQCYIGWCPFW

On to `Cc1ncnc(N2CCN(C)CC2)c1C#Cc1ccc(N)nc1` [Example B-8], for which the “IC50 PI3Ka” value in assay [1] stood at 547 nM. Further, it took 277 nM to reach a half-maximal effect in assay [2] (EC50). This molecule also displayed an IC50 in assay [3] of 56 nM.
Regarding `CCc1ncnc(N2CCC3(CCN(C(C)=O)CC3)CC2)c1C#Cc1ccc(N)nc1` [Example G-11], the “IC50 PI3Ka” value in assay [1] worked out at 36 nM. Further, a half-maximal response in assay [2] (EC50) required 55 nM. For the same molecule, in assay [3], the IC50 turned out to be 30 nM.
Consider `Cc1ncnc(N2CCOC(C)(C)C2)c1C#Cc1ccc(N)nc1` [Example B-1], for which, in assay [1], the “IC50 PI3Ka” value is on record as 46 nM. Besides, the concentration for a half-maximal effect (EC50) in assay [2] is 112 nM. The same molecule had an IC50 in assay [3] of 105 nM.
For `CCNC(=O)CC1CCN(c2ncnc(C)c2C#Cc2ccc(N)nc2)CC1` [Example E-5], in assay [1], the “IC50 PI3Ka” value is on record as 38 nM. For the same molecule, the EC50 in assay [2] came out at 171 nM. In addition, the IC50 in assay [3] was 58 nM.
Regarding `Cc1ncnc(N2C[C@@H](C)O[C@@H](C)C2)c1C#Cc1ccc(N)nc1` [Example B-9], the “IC50 PI3Ka” value in assay [1] is recorded as 34 nM. The molecule further showed an EC50 in assay [2] of 184 nM. Moreover, the IC50 in assay [3] came to 11 nM.
For the molecule `Cc1ncnc(N2CCC(CNC(=O)CC3CCCC3)CC2)c1C#Cc1ccc(N)nc1` [Example F-3], the “IC50 PI3Ka” value in assay [1] was determined as 39 nM. The molecule further registered an EC50 in assay [2] of 335 nM. In addition, the IC50 in assay [3] is 16 nM.
As to `COCCC(=O)NCC1CCN(c2ncnc(C)c2C#Cc2ccc(N)nc2)CC1` [Example F-5], in assay [1], the “IC50 PI3Ka” value amounted to 69 nM. This molecule returned an EC50 in assay [2] of 141 nM. Also, the IC50 in assay [3] is 18 nM.
For `CCc1ncnc(N2CCC(OC)CC2)c1C#Cc1ccc(C)nc1` [Example B-68] the same measures were 183 nM, 589 nM and 122 nM.
For the molecule `CCc1ncnc(N2CCC(C)(OC)CC2)c1C#Cc1ccc(N)nc1` [Example B-59], the “IC50 PI3Ka” value in assay [1] is on record as 53 nM. The molecule further displayed an EC50 in assay [2] of 23 nM. Further, the IC50 in assay [3] came out at 5 nM.
Regarding `COCCNC(=O)CC1CCN(c2ncnc(C)c2C#Cc2ccc(N)nc2)CC1` [Example E-4], the “IC50 PI3Ka” value in assay [1] is 66 nM. The same molecule returned an EC50 in assay [2] of 300 nM. Further, in assay [3], it took 144 nM to reach half-maximal inhibition (IC50).
As to `CCc1ncnc(N2CCC(O)C(C)C2)c1C#Cc1ccc(N)nc1` (stereo not drawn) [Example B-64], the “IC50 PI3Ka” value in assay [1] was determined as 55 nM. This molecule registered a half-maximal effective concentration (EC50) in assay [2] of 53 nM. In assay [3], this molecule returned an IC50 of 10 nM.
As for `CCc1ncnc(N2CCN(C(=O)CC#N)CC2)c1C#Cc1ccc(N)nc1` [Example G-3], in assay [1], the “IC50 PI3Ka” value came to 60 nM. This molecule also returned an EC50 in assay [2] of 550 nM. This molecule returned an IC50 in assay [3] of 91 nM.
For `CCc1ncnc(N2CCC(C(C)(C)O)CC2)c1C#Cc1ccc(N)nc1` [Example B-11], in assay [1], the “IC50 PI3Ka” value is 31 nM. The molecule also registered an EC50 in assay [2] of 60 nM. This molecule also yielded an IC50 in assay [3] of 7 nM.
With `Cc1ncnc(N2CCC(CC(=O)N(C)C)CC2)c1C#Cc1ccc(N)nc1` [Example E-1], in assay [1], the “IC50 PI3Ka” value is reported as 54 nM. Also, a half-maximal response in assay [2] (EC50) required 221 nM. In assay [3], this molecule registered a concentration for half-maximal inhibition (IC50) of 45 nM.
For `CCc1ncnc(N2CCC3(CC2)OCCCO3)c1C#Cc1ccc(N)nc1` [Example B-61] the same measures were 43 nM, 33 nM and 4 nM.
For `CCc1ncnc(N2CCC(C)(O)CC2)c1C#Cc1ccc(N)nc1` [Example B-47], the “IC50 PI3Ka” value in assay [1] was 36 nM. Moreover, in assay [2], the EC50 was determined as 46 nM. In assay [3], this molecule had an IC50 of 5 nM.
As to `CCc1ncnc(N2CCC(O)(Cc3ccccc3)CC2)c1C#Cc1ccc(N)nc1` [Example B-17], in assay [1], the “IC50 PI3Ka” value stood at 115 nM. For the same molecule, the response in assay [2] was half-maximal at 129 nM (EC50). The IC50 in assay [3] stood at 74 nM.
For `Cc1ncnc(N2CCC(O)(C3CCCCC3)CC2)c1C#Cc1ccc(N)nc1` [Example B-74], in that order: 98 nM, 195 nM and 30 nM.
`Cc1ncnc(N2CCC(O)(C(C)C)CC2)c1C#Cc1ccc(N)nc1` [Example B-66]: the “IC50 PI3Ka” value in assay [1] turned out to be 51 nM. Further, the EC50 in assay [2] came out at 24 nM. This molecule showed an IC50 in assay [3] of 5 nM.
For `CCc1ncnc(N2CCN(C3CC3)CC2)c1C#Cc1ccc(N)nc1` [Example B-51] the same measures were 86 nM, 129 nM and 43 nM.
Take `CCc1ncnc(N2CCC(=O)CC2)c1C#Cc1ccc(N)nc1` [Example B-62]: the “IC50 PI3Ka” value in assay [1] amounted to 109 nM. Besides, the concentration giving a half-maximal response (EC50) in assay [2] stood at 105 nM. The molecule also returned an IC50 in assay [3] of 28 nM.
In the case of `CCc1ncnc(N2CCC(O)(C(F)(F)F)CC2)c1C#Cc1ccc(N)nc1` [Example B-19], the “IC50 PI3Ka” value in assay [1] is 53 nM. The same molecule yielded an EC50 in assay [2] of 3 nM. This molecule also had an IC50 in assay [3] of 1 nM.
With `CCc1ncnc(N2CCC3(CCN(C(=O)COC)CC3)CC2)c1C#Cc1ccc(N)nc1` [Example G-12], the “IC50 PI3Ka” value in assay [1] stood at 37 nM. Besides, the response in assay [2] was half-maximal at 41 nM (EC50). Inhibition in assay [3] was half-maximal at 32 nM (IC50).
As to `CCc1ncnc(N2CCC(O)(c3ccccc3)CC2)c1C#Cc1ccc(N)nc1` [Example B-16], the “IC50 PI3Ka” value in assay [1] is recorded as 91 nM. The molecule further came in with an EC50 in assay [2] of 34 nM. The IC50 in assay [3] came to 7 nM.
For `Cc1ncnc(N2CCC3(CC2)OCCO3)c1C#Cc1ccc(N)nc1` [Example B-26] the same measures were 60 nM, 27 nM and 10 nM.
For `CCc1ncnc(N2CCN(CCOC)CC2)c1C#Cc1ccc(N)nc1` [Example B-55], in assay [1], the “IC50 PI3Ka” value was determined as 718 nM. Also, in assay [2], it took 191 nM to reach a half-maximal effect (EC50). This molecule also showed an IC50 in assay [3] of 26 nM.
On to `CCc1ncnc(N2CCC3(CCN(C(=O)NC)CC3)CC2)c1C#Cc1ccc(N)nc1` [Example G-13], for which the “IC50 PI3Ka” value in assay [1] is 50 nM. The molecule further yielded a concentration giving a half-maximal response (EC50) in assay [2] of 53 nM. The IC50 in assay [3] was found to be 35 nM.
For `CCc1ncnc(N2CCOC(C)(C)C2)c1C#Cc1ccc(N)nc1` [Example B-50], in that order: 49 nM, 56 nM and 30 nM.
For `CCCCCC(=O)NCC1CCN(c2ncnc(C)c2C#Cc2ccc(N)nc2)CC1` [Example F-2], in that order: 23 nM, 344 nM and 31 nM.
For `Cc1ncnc(N2CCC3(CC2)OCCCO3)c1C#Cc1ccc(N)nc1` [Example B-60] the same measures were 14 nM, 75 nM and 6 nM.
With `CC(=O)NCC1CCN(c2ncnc(C)c2C#Cc2ccc(N)nc2)CC1` [Example F-1], the “IC50 PI3Ka” value in assay [1] came to 36 nM. It took 135 nM to reach a half-maximal effect in assay [2] (EC50). In assay [3], this molecule gave an IC50 of 15 nM.
For `Cc1ncnc(N2CCOCC2)c1C#Cc1ccc(N)nc1` [Example B-4], in that order: 37 nM, 319 nM and 38 nM.
Regarding `CCc1ncnc(N2CCN(C(=O)OC)CC2)c1C#Cc1ccc(N)nc1` [Example G-6], in assay [1], the “IC50 PI3Ka” value worked out at 52 nM. In assay [2], this molecule yielded an EC50 of 106 nM. The molecule further registered an IC50 in assay [3] of 101 nM.
With `CCc1ncnc(N2CCC(O)(C(F)(F)F)CC2)c1C#Cc1ccc(C)nc1` [Example B-31], the “IC50 PI3Ka” value in assay [1] amounted to 172 nM. This molecule also came in with an EC50 in assay [2] of 80 nM. In assay [3], this molecule returned a half-inhibitory concentration (IC50) of 37 nM.
